Like-named read-outs stand apart in the source and are kept apart here.
Assays:
[1] = target: T1, erythromycin resistant methylase (Erm-AM) (Streptococcus pneumoniae, UniProt P21236); format: binding; details: 25-compound library, mass spectrometry of five fractions, with Erm AM vs buffer only
T1 construct: made in house; host or cells: E. coli BL21(DE3)/pV4, pET-24(+)
Method: (§1) Proteins and protein fragments were isolated from recombinant material produced in E. coli as described in detail below. Proteins and protein fragments were dialyzed into standard buffers comprising either a) a mixture of 20 mM ammonium bicarbonate and 1 mM sodium azide, the pH adjusted to pH 7.2 by the addition of acetic acid, or b) 50 mM Tris-HCl, 30 mM KCl, 10 mM magnesium acetate, 10 mM 2-mercaptoethanol, 1 mM sodium azide, and 10% glycerol, pH adjusted to 7.8. In the case of the first buffer system, additional ingredients, specific to each protein, were added to the buffer mixture which included 5 mM 2-mercaptoethanol for erythromycin resistant methylase (Erm-AM), and both 5 mM 2-mercaptoethanol and 10 mM calcium chloride for the stromelysin catalytic domain (SCD). Initial protein or protein fragment concentrations ranged between 100 μM and 1 mM.
(§2) Test compounds were made up in concentrated solutions in dimethyl sulfoxide and diluted into the protein or protein fragment buffer solutions such that the final concentration of dimethyl sulfoxide in the buffer solutions was 1% volume/volume.
The compounds were added to the protein or buffer solutions in 7 mm×20 mm polycarbonate centrifuge tubes, mixed by vortexing, and placed in the centrifuge. Each mixture was then subjected to centrifugation at a speed and for a period of time sufficient to clear the solution of macromolecular target, but not of ligand. Centrifugation was carried out either in a Model TL-100 ultracentrifuge at 100,000 rpm using a TLA-100 rotor, or in a Model L-70 ultracentrifuge at 42,000 rpm using a type 42.2 rotor. (Both centrifuges are manufactured by Beckman Instruments, 1050 Page Mill Road, Palo Alto, Calif. […], USA.)
Following centrifugation, the tubes were removed from the rotor and the tube contents divided into equal volume fractions. Any reasonable number of fractions may be employed; typically four or five fractions are used. To take the fractions, a pipette was carefully inserted into the liquid column in the sample tube to a point just below the liquid meniscus. […] The fractions were individually dispensed into microfuge tubes for analysis.
Mass spectrometric analysis of the samples was performed using either electrospray ionization (ESI) or atmospheric pressure chemical ionization (APCI) techniques. The ESI technique employed either a Model TSQ-700 or a Model LCQ mass spectrometer, and the APCI technique employed a Model LCQ mass spectrometer (both instruments manufactured by the Finnigan Corporation, 355 River Oaks Parkway, San Jose, Calif. 95134, USA).
For ESI analysis, fraction samples were diluted 1:5 with 50% aqueous acetonitrile, leaving the protein or protein fragment in solution. Ten-microliter aliquots, each representing about 10% of the sample, were introduced individually into the instrument by flow injection using 50% aqueous acetonitrile as the carrier. For initial studies with APCI, fractions were likewise diluted 1:5 with 50% aqueous acetonitrile. […] To reduce this background, subsequent samples analyzed by the APCI technique were diluted 1:5 with neat acetonitrile which caused the proteins or protein fragments to release their bound test compounds and precipitate. Sample solutions were then clarified by centrifugation in a microfuge for five minutes prior to analysis by APCI.

[2] = Solubility in the centrifuge carrier solvent (buffer), spun without protein; format: physicochemical
Method: as §1
Test compounds were made up in concentrated solutions in dimethyl sulfoxide and diluted into the protein or protein fragment buffer solutions such that the final concentration of dimethyl sulfoxide in the buffer solutions was 1% volume/volume. As a result, each compound in the mixture of test compounds had equal access to available binding sites on the target molecule.
The analysis was carried out with a 25-compound library using the spin-screen method of the present invention with the compound concentration gradients being determined by mass spectrometry. Sample preparation, centrifugation, analysis by mass spectrometry, and data analysis were according to the techniques described above under the heading “General Methodology.” The results are shown in FIGS. 3A and 3B. The figures represent planar cuts of the three-dimensional surface contour plot defined by the three axes: m/z, sample fraction, and mass spectral signal intensity. The planar cuts are taken at comparatively high values constant values of m/z. That is to say, at m/z signal levels which detected only the most strongly binding ligands in the 25-compound library.
The analysis was carried out with a 25-compound library using the spin-screen method of the present invention with the compound concentration gradients being determined by mass spectrometry. Sample preparation, centrifugation, analysis by mass spectrometry, and data analysis were according to the techniques described above under the heading “General Methodology.” The results are presented in FIGS. 5A and 5B.

[3] = target: T2, stromelysin catalytic domain (SCD) (Homo sapiens, UniProt P08254); assay: Affinity (Ki) for SCD previously determined by another method; format: binding
Target sequence in this assay (P08254 100-273): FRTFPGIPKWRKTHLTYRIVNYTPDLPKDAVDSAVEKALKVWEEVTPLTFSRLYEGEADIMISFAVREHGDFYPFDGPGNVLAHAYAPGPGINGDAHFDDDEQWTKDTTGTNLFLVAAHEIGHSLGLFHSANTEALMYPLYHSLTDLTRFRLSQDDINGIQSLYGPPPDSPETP

[4] = target: T2, stromelysin catalytic domain (SCD); assay: Spin-screen (centrifugation) affinity binding to SCD, concentration gradients by HPLC; parameters: coding for amino acid residues 81-256 plus an initiating methionine aminoacyl residue; initiating methionine (N); made in house; host or cells: E. coli BL21(DE3)/pLysS, plasmid pETST-81-256 (pET3d); details: 100 μM ligand, 100 μM SCD; HPLC of five fractions; with SCD vs buffer only
Method: as §1, §2
Target sequence in this assay (P08254 98-272): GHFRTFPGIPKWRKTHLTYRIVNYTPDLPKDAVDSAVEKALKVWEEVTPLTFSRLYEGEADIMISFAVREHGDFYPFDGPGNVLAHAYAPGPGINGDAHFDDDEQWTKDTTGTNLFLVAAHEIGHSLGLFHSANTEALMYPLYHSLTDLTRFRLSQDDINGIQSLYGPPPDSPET
The compounds were added to the protein or buffer solutions in 7 mm×20 mm polycarbonate centrifuge tubes, mixed by vortexing, and placed in the centrifuge. […]

[5] = target: yeast ribosomes isolated from Saccharomyces cerevisiae; assay: spin-screen: centrifugation with yeast ribosomes, GFP fluorescence in each of five fractions
[6] = buffer with 1% dimethyl sulfoxide

T1 sequence (P21236 whole entry, change not shown): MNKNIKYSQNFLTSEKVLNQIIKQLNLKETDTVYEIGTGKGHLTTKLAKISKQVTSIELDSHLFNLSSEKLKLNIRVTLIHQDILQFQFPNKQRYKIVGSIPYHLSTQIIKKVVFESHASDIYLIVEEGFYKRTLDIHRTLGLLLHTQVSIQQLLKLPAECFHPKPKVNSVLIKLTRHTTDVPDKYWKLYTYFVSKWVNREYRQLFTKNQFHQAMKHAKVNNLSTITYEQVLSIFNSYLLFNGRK

Molecule	Binding to Erm AM from concentration gradient after centrifugation [1]	fraction of total fluorescence (fraction of total fluorescence) [5]	other results
O=C(O)c1ccccc1C(=O)OC(c1ccccc1)c1cccc(Cl)c1 (centres unmarked) [1,2-benzenedicarboxylic acid, mono[(3-chlorophenyl)phenylmethyl] ester]	bound strongly		Binding to Erm AM from concentration gradient after centrifugation ([1]; mono [(3-chloro-phenyl)phenylmethyl] ester): bind to Erm AM
Nc1nc(NC2CCCCC2)nc(-c2ccc(O)cc2)n1 [4-[4-amino-6-(cyclohexylamino)-1,3,5-triazin-2-yl]phenol]	strongly bind		Solubility in the carrier solvent [2]: soluble
O=C(Nc1ccc(C(=O)O)cc1)Nc1cccc(C(F)(F)F)c1 [4-[[[[3-(trifluoromethyl)phenyl]amino]-carbonyl]amino]benzoic acid]	bound weakly		Binding to Erm AM from concentration gradient after centrifugation ([1]; listed as 4-[[[(3-trifluoromethyl)-phenyl]amino]carbonyl]amino]benzoic acid): bind to Erm AM
Nc1cc(Cl)c(S(N)(=O)=O)cc1S(N)(=O)=O [4-amino-6-chloro-1,3benzenesulfonamide]	medium binding		Solubility in the carrier solvent [2, 6]: soluble; Binding to Erm AM from concentration gradient after centrifugation ([1]; listed as 4-amino-6-chloro-1,3-benzenesulfonamide): bind to Erm AM
O=c1cc(O)c2ccccc2n1-c1ccc(OCc2ccccc2)cc1 [4-hydroxy-1-[4-(phenylmethoxy)phenyl]-2(1H)-quinoline]	strongly bound		Solubility in the carrier solvent [2, 6]: soluble; Binding to Erm AM from concentration gradient after centrifugation ([1]; listed as 4-hydroxy-1-[4-(phenylmethoxy)-phenyl]-2(1H)-quinoline): bind to Erm AM
N#Cc1ccc(-c2ccc(O)cc2)cc1 [4′-hydroxy-1,1-biphenyl-4-carbonitrile]			Ki [3]: ~1000 µM; Binding to SCD from concentration gradient after centrifugation [4]: binds weakly
Nc1nc(NC2CCCCC2)nc(N2CCCCC2)n1 [N-cyclohexyl-6-(1-piperidinyl)-1,3,5-triazine-2,4-diamine]	strongly bind		Solubility in the carrier solvent [2]: soluble; Binding to Erm AM from concentration gradient after centrifugation ([1]; listed as m/z=277): bound more strongly to Erm-AM than the compound at m/z=286
CN(CCCc1c(O)cc(Cl)cc1Cl)c1nc(N)nc(NC2CCCCC2)n1 [N′cyclohexyl-N-[3-(2,4-dichloro-6-hydroxyphenyl)propyl]-N-methyl-1,3,5triazine-2,4,6-triamine]	strongly bind		Solubility in the carrier solvent [2]: insoluble
GFP-EF3 fusion protein GFP-980-1008		0.2	
GFP-EF3 fusion protein GFP-980-1008:1025-1031		0.2	
GFP-EF3 fusion protein GFP-980-1013		0.2	
GFP-EF3 fusion protein GFP-980-1019		0.2	
GFP-EF3 fusion protein GFP-980-1025		0.2	
N-[3-(2,4-dichloro-6-hydroxyphenyl)propyl]-N′-(2,3-dihydro-1H-inden-2-yl)	strongly bind		Solubility in the carrier solvent [2]: insoluble

— patent publication US20030148269A1, “Centrifugally-enhanced method of determining ligand/target affinity” (priority 1999, published 2003)
